Data as given in ChEMBL document CHEMBL1201862, “PubChem BioAssay data set” (2004).
Active and inactive are the calls of the source.

Legend:
[1] = target: T1, Short transient receptor potential channel 4 (Mus musculus, UniProt Q9QUQ5); experiment: block of DAMGO-driven TRPC4 calcium entry – cell-based, HEK293 TRPC4/mu-opioid, Fluo-4 calcium, dose response (AID 434942); format: functional;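 further: potency of inhibitors blocking the TRPC4 calcium response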
T1 sequence (Q9QUQ5 whole entry): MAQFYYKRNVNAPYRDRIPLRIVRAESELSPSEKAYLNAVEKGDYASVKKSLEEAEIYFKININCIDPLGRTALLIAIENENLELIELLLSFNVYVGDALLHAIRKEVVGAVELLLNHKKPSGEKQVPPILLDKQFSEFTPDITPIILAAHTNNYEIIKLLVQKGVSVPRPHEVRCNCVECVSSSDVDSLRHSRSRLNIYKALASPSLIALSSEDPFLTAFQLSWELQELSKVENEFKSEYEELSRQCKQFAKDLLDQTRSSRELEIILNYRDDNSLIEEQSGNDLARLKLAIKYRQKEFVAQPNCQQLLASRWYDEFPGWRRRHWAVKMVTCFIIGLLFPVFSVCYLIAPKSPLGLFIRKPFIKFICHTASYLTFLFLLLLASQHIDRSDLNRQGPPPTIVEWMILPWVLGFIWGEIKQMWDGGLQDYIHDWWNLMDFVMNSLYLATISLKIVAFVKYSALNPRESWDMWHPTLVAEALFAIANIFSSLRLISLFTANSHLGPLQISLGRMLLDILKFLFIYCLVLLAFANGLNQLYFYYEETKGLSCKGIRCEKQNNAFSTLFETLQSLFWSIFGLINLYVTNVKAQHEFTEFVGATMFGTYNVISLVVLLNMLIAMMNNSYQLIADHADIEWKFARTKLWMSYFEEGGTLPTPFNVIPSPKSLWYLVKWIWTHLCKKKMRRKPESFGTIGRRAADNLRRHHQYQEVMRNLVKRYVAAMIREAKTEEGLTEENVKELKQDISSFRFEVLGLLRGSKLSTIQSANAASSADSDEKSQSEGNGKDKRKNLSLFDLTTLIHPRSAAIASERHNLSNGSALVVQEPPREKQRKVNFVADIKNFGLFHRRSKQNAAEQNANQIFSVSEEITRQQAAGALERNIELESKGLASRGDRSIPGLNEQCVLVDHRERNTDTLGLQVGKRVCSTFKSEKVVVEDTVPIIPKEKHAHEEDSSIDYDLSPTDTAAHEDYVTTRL

[2] = target: Bcl-2-like protein 10 (Homo sapiens, UniProt Q9HD36); experiment: Bcl-B/TR3 peptide binding disruption – biochemical, fluorescence polarization, FITC-TR3 peptide, selectivity assay for Bfl-1 inhibitor project, primary screen (AID 748);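 further: fluorescence polarization from a fluorescein-labelled TR3 peptide binding purified Bcl-B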
[3] = viability of uninfected HEp-2 cells – cell-based, HTS, cytotoxicity control for RSV inhibitor project, dose response (AID 2410); format: functional; conditions: human respiratory syncytial virus
[4] = cells
[5] = luciferase reporter signal suppression in cells – H4 neuroglioma cells, luminescence, dose response (AID 1990); format: functional, cell-based
[6] = system: BJ; experiment: BJ-TERT fibroblast viability loss – cell-based, RAS-independent, luminescence, dose response (AID 1933); format: functional; conditions: Homo sapiens
[7] = alpha-synuclein stem-loop translation blockers – luminescence, H4 neuroglioblastoma cells, dose confirmation, confirmation (AID 2454); format: functional, cell-based;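 further: H4 neuroglioblastoma cells carrying an alpha-synuclein 5'UTR luciferase reporter; potency for inhibition of the luciferase signal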
[8] = DRD fibroblast viability loss – cell-based, non-viral oncogenic, luminescence, dose response (AID 1934); format: functional; conditions: Homo sapiens
[9] = system: BJ; experiment: cells; format: functional, cell-based; conditions: Homo sapiens
[10] = HEK-293T viability loss after treatment – luminescence, T-cell screen hits, cytotoxicity control for TCR NF-kB inhibitor project, dose response (AID 489026); format: functional, cell-based;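 further: cells exposed to compound about 14 hours before the viability readout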
[11] = alpha-synuclein stem-loop luciferase translation blockers – H4 neuroglioma cells, luminescence, confirmation (AID 1988); format: functional, cell-based
[12] = luciferase reporter signal reduction – luminescence, H4-C neuroglioblastoma cells, dose response (AID 2458); format: functional, cell-based;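 further: H4 neuroglioblastoma cells stably carrying a luciferase reporter gene fusion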
[13] = cells; format: functional, cell-based
[14] = cells; format: functional, cell-based; remark: listed apart in the source
[15] = target: Paired box protein Pax-8 (Homo sapiens, UniProt Q06710); experiment: PAX8 transcriptional activity inhibition in RMG-I – RMG-I cells, luciferase, cherry-pick, dose response (AID 687027); format: functional, cell-based;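 further: luciferase reporter driven by Pax8 target thyroperoxidase promoter measured by SteadyGlo luminescence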
[16] = system: BJ; experiment: BJ-TERT-LT-ST fibroblast viability loss – cell-based, RAS-independent, luminescence, dose response (AID 1935); format: functional; conditions: Homo sapiens;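 further: BJ fibroblasts immortalized with TERT plus LT and ST oncogenes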
[17] = target: T2, Nuclear receptor subfamily 0 group B member 1 (Homo sapiens, UniProt P51843); format: functional, cell-based;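 further: HEK293T cells transfected with SF-1 and DAX-1 plus StAR promoter luciferase reporter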
T2 sequence (P51843 whole entry): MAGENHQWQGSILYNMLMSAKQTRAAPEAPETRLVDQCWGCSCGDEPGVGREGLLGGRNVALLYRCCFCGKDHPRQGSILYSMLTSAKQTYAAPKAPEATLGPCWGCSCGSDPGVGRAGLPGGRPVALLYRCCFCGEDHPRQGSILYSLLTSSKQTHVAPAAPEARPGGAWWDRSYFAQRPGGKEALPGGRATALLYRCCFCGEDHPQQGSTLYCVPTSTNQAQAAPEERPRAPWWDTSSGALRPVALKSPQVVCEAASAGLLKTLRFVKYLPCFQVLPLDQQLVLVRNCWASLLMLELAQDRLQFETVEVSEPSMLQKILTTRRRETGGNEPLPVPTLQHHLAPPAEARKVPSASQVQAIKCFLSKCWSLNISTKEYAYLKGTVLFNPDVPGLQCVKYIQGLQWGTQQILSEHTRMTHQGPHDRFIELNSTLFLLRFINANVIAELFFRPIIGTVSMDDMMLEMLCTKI

[18] = target: Luciferin 4-monooxygenase (Photinus pyralis, UniProt P08659); experiment: Counter Screen for Luciferase-based Assay Positives. [Related pubchem assays: 620, 618, 411 ]
[19] = target: T3, Leucine aminopeptidase (Plasmodium falciparum 3D7, UniProt Q8IL11); experiment: P. falciparum M17LAP inhibitors, primary screen, biochemical, fluorogenic H-Leu-NHMec substrate, 1536-well (AID 1619); format: functional
T3 sequence (Q8IL11 whole entry): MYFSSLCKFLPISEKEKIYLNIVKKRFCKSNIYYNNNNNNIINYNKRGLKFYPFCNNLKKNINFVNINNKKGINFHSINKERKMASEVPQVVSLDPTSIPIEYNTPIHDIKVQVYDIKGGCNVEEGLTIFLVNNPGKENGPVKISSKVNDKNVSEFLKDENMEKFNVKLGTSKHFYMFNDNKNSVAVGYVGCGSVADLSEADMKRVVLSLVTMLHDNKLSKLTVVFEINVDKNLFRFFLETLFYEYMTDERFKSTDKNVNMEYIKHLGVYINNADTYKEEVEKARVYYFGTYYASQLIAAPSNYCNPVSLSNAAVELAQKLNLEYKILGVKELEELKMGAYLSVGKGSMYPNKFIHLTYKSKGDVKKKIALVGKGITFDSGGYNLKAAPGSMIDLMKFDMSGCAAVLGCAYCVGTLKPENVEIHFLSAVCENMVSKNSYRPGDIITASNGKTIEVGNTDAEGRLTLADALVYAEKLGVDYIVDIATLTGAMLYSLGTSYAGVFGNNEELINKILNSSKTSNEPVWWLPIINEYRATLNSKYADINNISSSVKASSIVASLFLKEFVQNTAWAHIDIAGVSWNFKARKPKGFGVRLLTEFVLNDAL

[20] = target: T4, Microphthalmia-associated transcription factor (Homo sapiens, UniProt O75030); experiment: reducers of TRPM1 reporter luminescence, concentration series – cell-based, SK-MEL-5, cherry-picked, set 3, MITF inhibitor project, dose response (AID 493073); format: functional;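 further: SK-MEL-5 melanoma cells with luciferase driven by the MITF target TRPM1 promoter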
T4 sequence (O75030 whole entry): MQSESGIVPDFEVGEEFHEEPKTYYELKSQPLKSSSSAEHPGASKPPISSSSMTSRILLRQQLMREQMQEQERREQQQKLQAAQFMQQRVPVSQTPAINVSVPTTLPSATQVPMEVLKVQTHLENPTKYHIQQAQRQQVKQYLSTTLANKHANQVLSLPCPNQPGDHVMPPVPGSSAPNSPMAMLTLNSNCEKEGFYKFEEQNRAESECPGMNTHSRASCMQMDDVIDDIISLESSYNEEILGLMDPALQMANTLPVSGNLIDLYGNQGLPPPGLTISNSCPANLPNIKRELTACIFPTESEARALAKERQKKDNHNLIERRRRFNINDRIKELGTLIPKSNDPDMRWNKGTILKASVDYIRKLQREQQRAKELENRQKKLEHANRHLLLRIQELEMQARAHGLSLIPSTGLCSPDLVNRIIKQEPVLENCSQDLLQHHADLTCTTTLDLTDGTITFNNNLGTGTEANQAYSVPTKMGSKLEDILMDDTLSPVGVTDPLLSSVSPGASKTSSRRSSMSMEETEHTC

[21] = Luminescence Cell-Based Dose Response HTS to Identify Inhibitors of 5'UTR Stem-Loop Driven Prion Protein mRNA Translation in H4 Neuroglioblastoma Cells. [Related pubchem assays: 1827 (Project Summary), 1813 (Primary HTS)]; format: functional
[22] = system: HT-1080; experiment: HT1080 cell viability loss – fluorescence readout (AID 620); format: functional, cell-based; conditions: Homo sapiens
[23] = HIV-1 AD8 envelope cell-cell fusion blockers – cherry-pick, dose response (AID 652062); format: functional, cell-based;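 further: luciferase signal from cell-cell fusion driven by HIV-1 clade B AD8 Env; potency is for inhibitors of fusion seen as a drop in luminescence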
[24] = HEK-293T cell viability reduction – luminescence, B-cell screen hits, cytotoxicity control for BCR NF-kB inhibitor project, dose response (AID 489021); format: functional, cell-based;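 further: HEK-293T cells carrying an NF-kB luciferase reporter; cells exposed to compound for about 14 hours before viability readout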
[25] = blockers of HIV-1 ZM109 envelope-driven cell-cell fusion – HeLa effector, CEM target cells, luciferase, cherry-pick, dose response (AID 652058); format: functional, cell-based;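 further: luciferase signal from HIV-1 Env mediated cell-cell fusion of effector and target cells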
[26] = off-target signal loss in HeLa-CEM21 co-culture – HeLa F-luc CTL cells, cherry-picked, counter-screen for HIV-1 Env fusion inhibitor project, dose response (AID 652040); format: functional, cell-based;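 further: potency for signal decrease marking cytotoxic or nonspecific inhibition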
[27] = blockers of HIV-1 envelope-mediated cell-cell fusion – cherry-pick, dose response (AID 652057); format: functional, cell-based
[28] = target: T5, Long-chain-fatty-acid--AMP ligase FadD28 (Mycobacterium tuberculosis, UniProt P9WQ59); experiment: Fluorescence polarization aasay to screen for inhibitors that compete for the binding of FadD28 to a bisubstrate Measured in Biochemical System Using Plate Reader - 2147-01_Inhibitor_Dose_CherryPick_Activity.; format: functional, Mycobacterium tuberculosis H37Rv
T5 sequence (P9WQ59 whole entry): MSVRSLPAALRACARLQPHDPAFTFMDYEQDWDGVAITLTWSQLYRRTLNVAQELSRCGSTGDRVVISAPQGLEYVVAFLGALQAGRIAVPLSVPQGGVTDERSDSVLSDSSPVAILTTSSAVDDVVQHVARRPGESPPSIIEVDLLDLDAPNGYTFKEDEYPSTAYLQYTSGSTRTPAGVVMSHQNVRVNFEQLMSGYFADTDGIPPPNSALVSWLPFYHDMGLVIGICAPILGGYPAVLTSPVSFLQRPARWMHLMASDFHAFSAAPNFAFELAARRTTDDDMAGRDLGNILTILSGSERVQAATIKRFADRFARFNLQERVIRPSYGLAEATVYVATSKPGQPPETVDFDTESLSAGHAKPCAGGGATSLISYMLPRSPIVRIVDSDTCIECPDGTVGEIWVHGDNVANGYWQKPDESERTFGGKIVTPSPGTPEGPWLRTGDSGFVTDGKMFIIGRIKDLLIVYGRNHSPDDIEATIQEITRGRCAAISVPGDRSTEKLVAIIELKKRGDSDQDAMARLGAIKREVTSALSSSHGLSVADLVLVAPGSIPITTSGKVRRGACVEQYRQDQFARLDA

[29] = target: NS3 (Hepatitis C virus, UniProt A3EZJ3); experiment: PubChem AID 2173; parameters: species or system Hepacivirus hominis
[30] = target: Large T antigen (Simian virus 40, UniProt P03070); format: functional, Betapolyomavirus macacae;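 further: Confirmatory-stage PubChem screen for compounds that inhibit SV40 T antigen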
Large T antigen, sequence (P03070 whole entry): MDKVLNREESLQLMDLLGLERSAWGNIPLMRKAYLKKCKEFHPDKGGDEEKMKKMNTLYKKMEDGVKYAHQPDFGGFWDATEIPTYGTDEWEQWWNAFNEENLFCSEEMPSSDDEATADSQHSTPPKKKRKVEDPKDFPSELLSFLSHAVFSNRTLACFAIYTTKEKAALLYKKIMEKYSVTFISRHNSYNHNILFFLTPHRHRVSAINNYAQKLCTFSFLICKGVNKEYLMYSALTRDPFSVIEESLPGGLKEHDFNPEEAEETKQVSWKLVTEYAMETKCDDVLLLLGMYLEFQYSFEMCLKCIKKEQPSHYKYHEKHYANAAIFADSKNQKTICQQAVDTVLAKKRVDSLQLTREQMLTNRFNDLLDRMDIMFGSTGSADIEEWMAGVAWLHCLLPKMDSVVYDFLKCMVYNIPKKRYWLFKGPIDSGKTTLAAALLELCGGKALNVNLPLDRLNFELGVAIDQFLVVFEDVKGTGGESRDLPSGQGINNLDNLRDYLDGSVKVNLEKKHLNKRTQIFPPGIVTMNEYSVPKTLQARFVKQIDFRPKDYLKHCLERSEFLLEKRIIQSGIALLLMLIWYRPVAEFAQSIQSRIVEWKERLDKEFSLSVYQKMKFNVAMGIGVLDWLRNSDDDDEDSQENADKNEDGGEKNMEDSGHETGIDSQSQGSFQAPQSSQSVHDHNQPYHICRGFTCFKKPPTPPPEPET

NS3, sequence (A3EZJ3 whole entry): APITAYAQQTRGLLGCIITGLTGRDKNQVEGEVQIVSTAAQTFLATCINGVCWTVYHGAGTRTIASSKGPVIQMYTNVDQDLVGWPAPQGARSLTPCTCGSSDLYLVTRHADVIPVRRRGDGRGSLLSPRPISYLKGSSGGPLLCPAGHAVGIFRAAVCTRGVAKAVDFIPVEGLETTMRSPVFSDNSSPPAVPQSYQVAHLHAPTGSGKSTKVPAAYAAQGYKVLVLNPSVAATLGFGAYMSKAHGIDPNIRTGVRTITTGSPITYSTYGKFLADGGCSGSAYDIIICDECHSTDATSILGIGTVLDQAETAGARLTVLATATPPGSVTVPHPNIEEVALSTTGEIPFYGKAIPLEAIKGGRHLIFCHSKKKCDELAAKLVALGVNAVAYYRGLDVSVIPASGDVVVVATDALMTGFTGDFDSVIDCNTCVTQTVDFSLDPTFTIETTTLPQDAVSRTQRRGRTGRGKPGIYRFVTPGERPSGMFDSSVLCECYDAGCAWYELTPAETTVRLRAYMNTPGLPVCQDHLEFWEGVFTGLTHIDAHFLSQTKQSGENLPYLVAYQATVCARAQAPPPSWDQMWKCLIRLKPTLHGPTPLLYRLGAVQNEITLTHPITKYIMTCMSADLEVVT
Luciferin 4-monooxygenase, sequence (P08659 whole entry): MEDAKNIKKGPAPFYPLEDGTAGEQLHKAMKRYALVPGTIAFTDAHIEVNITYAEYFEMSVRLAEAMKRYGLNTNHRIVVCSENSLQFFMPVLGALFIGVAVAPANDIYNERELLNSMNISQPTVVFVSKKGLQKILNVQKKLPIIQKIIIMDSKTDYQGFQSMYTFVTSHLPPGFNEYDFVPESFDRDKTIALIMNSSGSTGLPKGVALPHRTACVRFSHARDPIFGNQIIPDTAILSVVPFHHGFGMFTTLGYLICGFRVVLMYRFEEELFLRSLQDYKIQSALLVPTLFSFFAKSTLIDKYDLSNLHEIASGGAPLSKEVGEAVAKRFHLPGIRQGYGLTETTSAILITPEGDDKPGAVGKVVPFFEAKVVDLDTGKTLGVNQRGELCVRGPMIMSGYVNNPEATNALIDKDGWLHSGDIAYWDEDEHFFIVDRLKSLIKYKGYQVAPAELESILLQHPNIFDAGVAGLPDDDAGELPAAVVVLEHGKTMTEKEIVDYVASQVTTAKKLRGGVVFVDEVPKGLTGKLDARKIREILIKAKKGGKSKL
Paired box protein Pax-8, sequence (Q06710 whole entry): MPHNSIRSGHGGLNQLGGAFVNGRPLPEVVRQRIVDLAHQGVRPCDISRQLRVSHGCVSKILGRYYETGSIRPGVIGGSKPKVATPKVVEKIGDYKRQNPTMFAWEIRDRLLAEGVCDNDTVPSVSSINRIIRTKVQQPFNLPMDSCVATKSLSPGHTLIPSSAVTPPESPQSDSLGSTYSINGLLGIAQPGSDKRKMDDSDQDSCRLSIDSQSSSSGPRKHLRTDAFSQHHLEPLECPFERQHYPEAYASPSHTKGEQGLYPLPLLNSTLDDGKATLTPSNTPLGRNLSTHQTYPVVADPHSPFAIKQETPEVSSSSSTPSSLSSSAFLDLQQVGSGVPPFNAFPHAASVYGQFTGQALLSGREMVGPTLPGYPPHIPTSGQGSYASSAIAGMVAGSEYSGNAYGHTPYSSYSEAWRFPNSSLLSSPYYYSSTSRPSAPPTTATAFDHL
Bcl-2-like protein 10, sequence (Q9HD36 whole entry): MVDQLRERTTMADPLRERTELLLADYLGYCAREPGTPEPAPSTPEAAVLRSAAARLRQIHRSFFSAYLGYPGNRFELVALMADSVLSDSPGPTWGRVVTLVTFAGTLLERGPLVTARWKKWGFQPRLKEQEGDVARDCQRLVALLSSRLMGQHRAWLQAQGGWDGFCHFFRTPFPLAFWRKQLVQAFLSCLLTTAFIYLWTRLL

## CCc1cccc(OCC(=O)Nc2ccc(C(=O)O)cc2NC(=O)COc2cccc(CC)c2)c1
[1]
  EC50: 11.9 µM (active)

## Cc1c[nH]c2cccc(OCC(O)CNC(C)(C)C)c12 (stereo unspecified)
[2]
  IC50: > 100 µM (inactive)

## CCCN1C2=NCCN2c2cc(C)c(C)cc21
[1]
  EC50: 5.96 µM (active)

## COc1ccc(C(c2c(NC(=O)c3ccco3)sc(C)c2C)N2CCOCC2)cc1OC (stereo unspecified)
[3]
  CC50: 46.5 µM (active)
[4]
  IC50: 4.07 µM (active)

## COc1ccc(NC(=O)C(=O)NCC2CCCN2S(=O)(=O)c2ccc(C)cc2)cc1 (stereo unspecified)
[5]
  EC50: < 0.1 µM (active)
[6]
  EC50: 0.625 µM (active)
[7]
  EC50: 0.047 µM (active)
[8]
  EC50: 0.484 µM (active)
[9]
  EC50: 11.7 µM (inconclusive)
[10]
  IC50: > 80 µM (inactive)
[11]
  EC50: < 0.1 µM (active)
[12]
  EC50: 0.051 µM (active)
[13]
  EC50: 0.06 µM (active)
[14]
  IC50: > 67.5 µM (inactive)
[15]
  AC50: 0.709 µM (active)
[16]
  EC50: 0.611 µM (active)
[17]
  IC50: > 67.5 µM (inactive)

## N#Cc1c(NC(=O)CSc2nnc[nH]2)sc2c1CCCC2
[18]
  EC50: 27.8 µM (active)
[19]
  IC50: 4.79 µM (active)
[20]
  AC50: 0.599 µM (active)

## O=C(CSc1nnc(-c2ccc(Br)cc2)o1)Nc1cccc(C(=O)O)c1
[5]
  EC50: 3.04 µM (active)
[7]
  EC50: 0.409 µM (active)
[11]
  EC50: < 0.1 µM (active)
[12]
  EC50: 0.31 µM (active)
[13]
  EC50: 0.934 µM (active)
[21]
  EC50: < 0.1 µM (active)

## COc1ccc(-c2noc(CCCC(=O)O)n2)cc1
[22]
  EC50: > 50 µM (not active)
[23]
  AC50: 1.1 µM (active)
[24]
  IC50: > 80 µM (inactive)
[18]
  EC50: 3.3 µM (active)
[25]
  AC50: 1.08 µM (active)
[26]
  AC50: 1.59 µM (active)
[27]
  AC50: 2.26 µM (active)

## O=c1c2c(O)cc(CSc3ccc(Cl)cc3)nc2[nH]n1-c1ccccc1
[28]
  AC50: 23.4 µM (active)
[29]
  IC50: 5.22 µM (active)
[30]
  IC50: > 100 µM (active)

## Cc1cc(O)nc(N/N=C/c2c(C)nn(-c3ccccc3Cl)c2Cl)n1
[3]
  CC50: 21.2 µM (active)
[4]
  IC50: 41.5 µM (active)

## N#C/C(=C\c1ccc(O)c(O)c1)S(=O)(=O)c1ccccc1
[29]
  IC50: 4.39 µM (active)
[19]
  IC50: 7.23 µM (active)
